Assay [1] deals with HARA (Squamous Cell Lung Carcinoma). Put plainly: combination Emax (second highest fraction inhibited in the dose matrix, 72 h); higher = more inhibition; extreme values may be limits of the assay. The method in brief:
(§1)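 After 24 hours at 37°C and 5% CO2 in 1536-well plates, cells in DMEM/F12 or RPMI plus 10% FBS received two-drug dose matrices for 72 hours. Viability came from CellTiter-Glo 2.0 luminescence and was scaled as inhibition, anchored at 0 by vehicle wells and at 1 by blank wells. Combination Emax is taken as the second-highest inhibition in the matrix, and Bliss excess as the observed combination effect less EA + EB − EA·EB, with EA and EB the single-agent effects.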

The subject of the next assay is NCI-H28 (Mesothelioma). The assay is described as above. The method in brief: as §1
For assay [2], the system named is LoVo (Colorectal Carcinoma). The description is as above. The method in brief:
as §1

Assay [3] concerns OC-314 (Ovarian Carcinoma). The description is as above. In short, it runs like this: as §1
Assay [4] relates to HO-1-u-1 (Oral Cavity Carcinoma). Put plainly: Bliss excess, mean over the matrix (fraction); higher = more synergy. The method in brief: as §1
For assay [5], the system named is LB771-HNC (Head and Neck Carcinoma). Described as above. The method in brief:
as §1

The test system of assay [6] is RKO (Colorectal Carcinoma). The assay is described as above. The method in brief:
as §1

Assay [7] deals with OVCAR-8 (Ovarian Carcinoma). The description is as above. In short, it runs like this: as §1
The test system of assay [8] is RT-112 (Bladder Carcinoma). Described as above. In short, it runs like this: as §1
The test system of assay [9] is SU-DHL-6 (B-Cell Non-Hodgkin's Lymphoma). The assay is described as above. The method in brief:
as §1

Assay [10] has as its system HARA (Squamous Cell Lung Carcinoma). The description is as above. The method in brief:
as §1

Assay [11] has as its system 8305C (Thyroid Gland Carcinoma). Described as above. The method in brief: as §1
The test system of assay [12] is CTB-1 (B-Cell Non-Hodgkin's Lymphoma). The description is as above. In short, it runs like this:
as §1

The test system of assay [13] is 639-V (Bladder Carcinoma). Described as above. The method in brief: as §1
In the next assay the test system is COLO-829 (Melanoma). The assay is described as above. The method in brief: as §1
In assay [14] the test system is LoVo (Colorectal Carcinoma). Described as above. The method in brief:
as §1

The test system of assay [15] is EN (Endometrial Carcinoma). The assay is described as above. The method in brief:
as §1

The next assay concerns Mewo (Melanoma). The assay is described as above. In short, it runs like this: as §1
Assay [16] relates to KARPAS-231 (B-Cell Non-Hodgkin's Lymphoma). The assay is described as above. In short, it runs like this: as §1
Assay [17] concerns NCI-H69 (Small Cell Lung Carcinoma). The assay is described as above. In short, it runs like this:
as §1

Molecules are shown by their SMILES.
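Throughout, for Bliss excess, mean over the matrix: after 72 h of two-drug dosing.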

As to `Cc1cc2ncnn2cc1Nc1ncc2c(n1)n(C1CCOCC1)c(=O)n2C` [AZD7648] + C[C@@H]1COCCN1C2=NC(=NC(=C2)C3(CC3)[S@](=N)(=O)C)C4=C5C=CNC5=NC=C4 [AZD6738] (first compound max 10 µM, 7x7, partner max 10 µM), the “combination Emax” value in assay [1] was found to be 0.841; in the assay with NCI-H28 (Mesothelioma), 0.538; in assay [2], 0.813; in [3] it was 0.905. Moreover, the Bliss excess is -0.0014 in [4]; 0.0039 in assay [5]; 0.0059 in assay [6]; 0.0012 in assay [7]; 0.0746 in assay [8]; -0.0598 in [9]. Moreover, the Bliss excess in [10] is -0.0073; in [11], 0.02; in assay [12], 0.0098; in [13], 0.0317; with COLO-829 (Melanoma), -0.0088; in assay [14], -0.0058. Moreover, the Bliss excess was -0.0485 in assay [15], -0.0217 with Mewo (Melanoma), 0.0018 in assay [16] and -0.0348 in assay [17].

`CN(CCO)CC[C@H](CSc1ccccc1)Nc1ccc(S(=O)(=O)NC(=O)c2ccc(N3CCC([C@@H](O)c4ccccc4-c4ccc(Cl)cc4)CC3)cc2)cc1S(=O)(=O)C(F)(F)F` [AZD4320] + C1CN(CCC1(C(=O)N[C@@H](CCO)C2=CC=C(C=C2)Cl)N)C3=NC=NC4=C3C=CN4 [Capivasertib] (first compound max 1 µM, 7x7, partner max 3 µM): the “combination Emax” value came out at 0.298 in assay [1], 0.159 with NCI-H28 (Mesothelioma), 0.633 in assay [2] and 0.261 in assay [3]. In addition, the Bliss excess in [4] was -0.0621; in assay [5], -0.0148; in assay [6], -0.0191; in [7], -0.0468; in assay [8], -0.039; in [9], 0.0292. The Bliss excess in [10] was -0.0268; in assay [11] it was -0.0663; in [12], -0.0277; in [13], -0.0503; in the assay with COLO-829 (Melanoma), -0.0988; in [14], -0.071. The Bliss excess is -0.0343 in assay [15], -0.0262 in the assay with Mewo (Melanoma), 0.0407 in assay [16] and -0.0153 in assay [17].

On to `Cc1c2c(nn1C)CSCc1cc(n(C)n1)CSc1cc(c3ccccc3c1)OCCCc1c(C(=O)O)n(C)c3c-2c(Cl)ccc13` [AZD5991] + Cc1cc2ncnn2cc1Nc1ncc2c(n1)n(C1CCOCC1)c(=O)n2C [AZD7648] (first compound max 1 µM, 7x7, partner max 10 µM), for which the “combination Emax” value in assay [1] turned out to be 0.394; with NCI-H28 (Mesothelioma), 0.298; in assay [2], 0.573; in assay [3], 0.297. Also, the Bliss excess in assay [4] is -0.019; in assay [5] it was -0.0251; in assay [6] it was -0.0301; in [7], -0.0129; in assay [8] it was -0.0298; in assay [9], 0.0224. The Bliss excess in [10] is 0.045; in assay [11], -0.0739; in assay [12], -0.0345; in [13] it was -0.005; in the assay with COLO-829 (Melanoma), -0.0341; in [14], -0.0356. In addition, the Bliss excess in assay [15] was -0.056; in the assay on Mewo (Melanoma), -0.0211; in [16], -0.0639; in assay [17], -0.0501.

`CCN(CCO)CCCOc1ccc2c(Nc3cc(CC(=O)Nc4cccc(F)c4)[nH]n3)ncnc2c1` [AZD2811] + C=CCn1c(=O)c2cnc(Nc3ccc(N4CCN(C)CC4)cc3)nc2n1-c1cccc(C(C)(C)O)n1 [AZD1775] (first compound max 1 µM, partner max 1 µM): the “combination Emax” value in [1] was determined as 0.788; with NCI-H28 (Mesothelioma), 0.278; in assay [2], 0.835; in assay [3] it was 0.839. The Bliss excess is -0.0168 in [4]; -0.0295 in assay [5]; -0.0625 in [6]; 0.0213 in [7]; 0.0233 in [8]; 0.0537 in assay [9]. Further, the Bliss excess in assay [10] is -0.0086; in [11], -0.0355; in assay [12] it was 0.0011; in assay [13], 0.0509; with COLO-829 (Melanoma), 0.0009; in assay [14] it was -0.0731. The Bliss excess in [15] was -0.0426; with Mewo (Melanoma), -0.011; in assay [16], 0.0395; in [17], -0.0671.

In the case of `C=CCn1c(=O)c2cnc(Nc3ccc(N4CCN(C)CC4)cc3)nc2n1-c1cccc(C(C)(C)O)n1` [AZD1775] + C[C@@H]1COCCN1C2=NC(=NC(=C2)C3(CC3)[S@](=N)(=O)C)C4=C5C=CNC5=NC=C4 [AZD6738] (first compound max 1 µM, partner max 10 µM), the “combination Emax” value in assay [1] came to 0.906; in the assay with NCI-H28 (Mesothelioma), 0.618; in assay [2], 0.875; in [3], 0.941. Also, the Bliss excess is 0.0263 in [4]; -0.0057 in assay [5]; 0.0529 in assay [6]; 0.0818 in assay [7]; 0.0578 in assay [8]; 0.0458 in [9]. For the same compound, the Bliss excess is -0.0239 in assay [10]; -0.122 in assay [11]; -0.0464 in assay [12]; 0.0455 in assay [13]; -0.0194 in the assay on COLO-829 (Melanoma); -0.0212 in [14]. Further, the Bliss excess is 0.026 in the assay on Mewo (Melanoma), 0.0545 in [16] and 0.0962 in assay [17].

Regarding `CCc1c2c(nc3ccc(O)cc13)-c1cc3c(c(=O)n1C2)COC(=O)[C@]3(O)CC` [SN-38] + O=C(c1cc(Cc2n[nH]c(=O)c3ccccc23)ccc1F)N1CCN(C(=O)C2CC2)CC1 [Olaparib] (first compound max 0.3 µM, 7x7, partner max 10 µM), the “combination Emax” value was found to be 0.852 in [1], 0.429 with NCI-H28 (Mesothelioma), 0.717 in assay [2] and 1 in [3]. The Bliss excess in assay [4] was 0.0415; in assay [5] it was -0.0181; in assay [6], 0.0223; in assay [8], 0.116; in assay [9], 0.0391; in assay [10] it was 0.124. Further, the Bliss excess is 0.04 in [11]; 0.0546 in [12]; 0.0917 in [13]; -0.0186 with COLO-829 (Melanoma); 0.0556 in [14]; -0.0377 in [15]. Further, the Bliss excess with Mewo (Melanoma) was 0.008; in assay [16] it was 0.113; in [17], -0.0035.

As to `Cc1c2c(nn1C)CSCc1cc(n(C)n1)CSc1cc(c3ccccc3c1)OCCCc1c(C(=O)O)n(C)c3c-2c(Cl)ccc13` [AZD5991] + CN(C)CCCOc1ccc(-c2ccc3ncc4c(c3c2)n(C2CCOCC2)c(=O)n4C)cn1 [AZD0156] (first compound max 1 µM, 7x7, partner max 1 µM), the “combination Emax” value in assay [1] stood at 0.312; in the assay on NCI-H28 (Mesothelioma) it was 0.194; in assay [2], 0.496; in assay [3], 0.239. For the same compound, the Bliss excess in assay [4] was 0.04; in [5], 0.0096; in [6], 0.0041; in assay [7], 0.0408; in assay [8], -0.0217; in [9], -0.0154. The Bliss excess was -0.0178 in [11]; -0.0457 in assay [12]; -0.0065 in [13]; -0.0492 in the assay on COLO-829 (Melanoma); -0.0005 in assay [14]; -0.024 in assay [15]. Moreover, the Bliss excess was -0.019 with Mewo (Melanoma), 0.041 in assay [16] and -0.0614 in assay [17].
